Like-named read-outs stand apart in the source and are kept apart here.
Tests used:
GRP94 [1] = target: GRP94 (Homo sapiens, UniProt P14625); test: GRP94 binding of antigenic peptides (Table 3)
GRP94 [2] = target: T1, GRP94 (Mus musculus, UniProt P08113); test: Solid phase 96-well plate assay of peptide binding by recombinant GRP94 N-terminal fragments; parameters: His6 tagged N355, comprising of amino acids 34-355 of GRP94; made in house; host or cells: E. coli M15; species or system murine
grp94-/- ES cells = conditions: 1 mM EGTA, FIG. 14E-F
WT ES cells = conditions: 1 mM EGTA, FIG. 14E-F
GRP94 [3] = target: T1, GRP94; parameters: a truncated version of GRP94, containing amino acids 1-355; made in house; host or cells: insect cells; conditions: full-length GRP94, ref [14]; cited from earlier work
GRP94 [4] = conditions: vast molar excess of peptide, 10 min 50° C. treatment of the protein
[5] = test system: purified mouse dendritic cells; test: Binding and uptake of GRP94 N-terminal domain by dendritic cells; type: cell-based; conditions: bound at 40° C., warmed to 37° C., into endosomal vesicles, FIG. 16
GRP94 [6] = test: Solid phase 96-well plate assay of peptide binding by recombinant GRP94 N-terminal fragments; parameters: species or system murine
tumors = conditions: vaccinated mice, Blachere et al. 1997; cited from earlier work
[7] = test system: radicicol-binding pocket of GRP94; test: Radicicol binding judged by conformational change on blue native gel electrophoresis; parameters: species or system murine; conditions: 300 μM radicicol or DMSO
[8] = antigenic peptides that can be loaded on GRP94

GRP94 (Homo sapiens, UniProt P14625), sequence (P14625 22-803, species assumed): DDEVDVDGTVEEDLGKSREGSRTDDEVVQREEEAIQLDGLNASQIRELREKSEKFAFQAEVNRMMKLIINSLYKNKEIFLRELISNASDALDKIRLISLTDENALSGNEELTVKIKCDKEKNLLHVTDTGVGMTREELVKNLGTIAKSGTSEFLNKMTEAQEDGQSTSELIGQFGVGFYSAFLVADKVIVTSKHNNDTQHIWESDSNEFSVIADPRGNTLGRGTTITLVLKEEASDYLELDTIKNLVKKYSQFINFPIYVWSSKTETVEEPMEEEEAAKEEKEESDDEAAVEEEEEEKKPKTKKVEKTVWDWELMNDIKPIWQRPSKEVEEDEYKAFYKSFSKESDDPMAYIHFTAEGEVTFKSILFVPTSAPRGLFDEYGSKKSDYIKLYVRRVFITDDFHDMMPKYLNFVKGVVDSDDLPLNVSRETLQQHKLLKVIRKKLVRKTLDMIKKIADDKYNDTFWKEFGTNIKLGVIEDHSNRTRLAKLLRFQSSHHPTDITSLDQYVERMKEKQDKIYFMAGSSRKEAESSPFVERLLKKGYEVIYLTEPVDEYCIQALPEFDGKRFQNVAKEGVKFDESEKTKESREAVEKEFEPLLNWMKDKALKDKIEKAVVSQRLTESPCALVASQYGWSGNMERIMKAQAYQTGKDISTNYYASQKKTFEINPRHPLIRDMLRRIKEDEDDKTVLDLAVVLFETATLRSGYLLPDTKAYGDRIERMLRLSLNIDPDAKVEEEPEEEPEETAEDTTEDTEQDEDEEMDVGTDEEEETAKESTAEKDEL

SIINFEKL [OVA 257-264]
GRP94 binding (GRP94 [1]; [8]): yes

NO [Hydroxylamine]
Effect of histidine modification on peptide-binding activity of N34-355 (GRP94 [2]): restored the activity

RAHYNIVTF (RAH)
GRP94 binding (GRP94 [1]): yes, weak

FLWGPRALV [MAGE 3]
GRP94 binding (GRP94 [1]; [8]): yes

O=C(O)CN(CCOCCOCCN(CC(=O)O)CC(=O)O)CC(=O)O [EGTA]
Growth under Ca++-chelating conditions, -/- cells (grp94-/- ES cells): cannot grow
Growth under Ca++-chelating conditions, WT cells (WT ES cells): can grow for 5 days

c1c[nH]cn1 [imidazole]
IC50 (GRP94 [2]; N34-355 binding to peptide A, FIG. 6B, read-out: Imidazole concentration that reduced peptide binding by half): 6 mM

RGYVYQGL [VSV8]
Binder or non-binder of GRP94 in the peptide binding assay (GRP94 [2]): binder
GRP94 binding (GRP94 [1]): yes

CCOC(=O)OC(=O)OCC [DEPC, Diethyl pyrocarbonate]
Effect of histidine modification on peptide-binding activity of N34-355 (GRP94 [2]; His6 tag cleaved, peptide A-coated plates, 0.7 μg protein per well, FIG. 6C): abolished

Glucose Regulated Protein 94 [GRP94]
Fraction of the protein shown to bind peptides (GRP94 [3]): about 1%
Fraction of the protein that can be loaded with peptide (GRP94 [4]): up to 85%

KRQIYTDLEMNRLGK [PepA]
Binder or non-binder of GRP94 in the peptide binding assay (GRP94 [2]): binder

B1: N34-355: Recombinant GRP94 fragment, amino acids 34-355, N-terminal His6 tag and factor Xa site, expressed in E. coli (protein)
chain: PYNGTGSAIQLDGLNASQIRELREKSEKFAFQAEVNRMMKLIINSLYKNKEIFLRELISNASDALDKIRLISLTDENALSGNEELTVKIKCDKEKNLLHVTDTGVGMTREELVKNLGTIAKSGTSEFLNKMTEAQEDGQSTSELIGQFGVGFYSAFLVADKVIVTSKHNNDTQHIWESDSNEFSVIADPRGNTLGRGTTITLVLKEEASDYLELDTIKNLVKKYSQFINFPIYVWSSKTETVEEPMEEEEAAKEEKEESDDEAAVEEEEEEKKPKTKKVEKTVWDWELMNDIKPIWQRPSKEVEEDEYKAFYKSFSKESDDPMAYIHFT
modifications: left off: small tags and cut ends
notes: Recombinant GRP94 fragment, amino acids 34-355, N-terminal His6 tag and factor Xa site, expressed in E. coli
Binding of VSV8 peptide (dose binding curve) (GRP94 [2]; VSV8-coated plates, compared with N1-355, FIG. 1B): binding curve very similar to that of N1-355
Uptake by dendritic cells [5]: internalized
Inhibition of peptide binding activity by pre-treatment with radicicol (GRP94 [6]): inhibited significantly

B2: GRP94 bound to tumor peptides: GRP94 complexed with tumor peptides, used to vaccinate mice (Srivastava's lab) (protein, UniProt P08113 22-802, looked up)
Endoplasmin: DDEVDVDGTVEEDLGKSREGSRTDDEVVQREEEAIQLDGLNASQIRELREKSEKFAFQAEVNRMMKLIINSLYKNKEIFLRELISNASDALDKIRLISLTDENALAGNEELTVKIKCDKEKNLLHVTDTGVGMTREELVKNLGTIAKSGTSEFLNKMTEAQEDGQSTSELIGQFGVGFYSAFLVADKVIVTSKHNNDTQHIWESDSNEFSVIADPRGNTLGRGTTITLVLKEEASDYLELDTIKNLVRKYSQFINFPIYVWSSKTETVEEPLEEDEAAKEEKEESDDEAAVEEEEEEKKPKTKKVEKTVWDWELMNDIKPIWQRPSKEVEEDEYKAFYKSFSKESDDPMAYIHFTAEGEVTFKSILFVPTSAPRGLFDEYGSKKSDYIKLYVRRVFITDDFHDMMPKYLNFVKGVVDSDDLPLNVSRETLQQHKLLKVIRKKLVRKTLDMIKKIADEKYNDTFWKEFGTNIKLGVIEDHSNRTRLAKLLRFQSSHHSTDITSLDQYVERMKEKQDKIYFMAGSSRKEAESSPFVERLLKKGYEVIYLTEPVDEYCIQALPEFDGKRFQNVAKEGVKFDESEKTKESREATEKEFEPLLNWMKDKALKDKIEKAVVSQRLTESPCALVASQYGWSGNMERIMKAQAYQTGKDISTNYYASQKKTFEINPRHPLIRDMLRRIKEDEDDKTVMDLAVVLFETATLRSGYLLPDTKAYGDRIERMLRLSLNIDPEAQVEEEPEEEPEDTSEDAEDSEQDEGEEMDAGTEEEEEETEKESTEKDEL
modifications: complexed with tumor peptides
Improvement of T cell responses on tumor challenge compared to control mice (tumors): 10-200 fold

B3: H125D: N34-355 with His125 mutated to Asp (protein, UniProt P14625 34-355, looked up, variant H125D)
chain: DLGKSREGSRTDDEVVQREEEAIQLDGLNASQIRELREKSEKFAFQAEVNRMMKLIINSLYKNKEIFLRELISNASDALDKIRLISLTDENALSGNEELTVKIKCDKEKNLLDVTDTGVGMTREELVKNLGTIAKSGTSEFLNKMTEAQEDGQSTSELIGQFGVGFYSAFLVADKVIVTSKHNNDTQHIWESDSNEFSVIADPRGNTLGRGTTITLVLKEEASDYLELDTIKNLVKKYSQFINFPIYVWSSKTETVEEPMEEEEAAKEEKEESDDEAAVEEEEEEKKPKTKKVEKTVWDWELMNDIKPIWQRPSKEVEEDEY
modifications: fragment 34-355 His6 tag, factor Xa site
notes: N34-355 with His125 mutated to Asp
Radicicol binding (conformational change, native gel mobility, 9G10 epitope) [7]: retained its ability to bind the inhibitor radicicol
Peptide binding activity (GRP94 [6]; peptide A-coated plates, 0.7 or 2 μg protein, FIG. 7A): almost no peptide binding activity
